Target: T1, MAGE-A11:PCF11 interaction (GST-MAGE-A11 and FAM-PCF11_4) (Homo sapiens, UniProt P43364)
T1 construct: GST-MAGE-A11 MHD (human MAGE-A11 MHD amino acid 218-429); made in house; host or cells: E. coli BL21(DE3)
T1 sequence (P43364 218-429): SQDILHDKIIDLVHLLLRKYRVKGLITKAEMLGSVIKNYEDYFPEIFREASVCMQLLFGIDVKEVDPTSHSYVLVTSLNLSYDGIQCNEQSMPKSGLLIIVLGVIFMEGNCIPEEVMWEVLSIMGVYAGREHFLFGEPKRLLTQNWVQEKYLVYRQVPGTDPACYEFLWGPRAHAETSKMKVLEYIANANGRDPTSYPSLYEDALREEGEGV
Experiment: TR-FRET primary / single point screen at 15 µM
Assay type: binding
Settings: single point TR-FRET screening of 797 quinoline compounds against MAGE-A11:PCF11
In short: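 TR-FRET 520/490 nm emission ratio was read after 90 min at room temperature. Wells held 5 nM GST-MAGE-A11, 5 nM Tb-anti-GST, 200 nM FAM-PCF11_4 and 15 µM compound in Tris pH 7.5 buffer with MgCl2, BSA and DTT. %Inhibition was scaled to DMSO and minus-MAGE-A11 controls.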

| Compound | percent inhibition (TR-FRET) |
| --- | --- |
| Clc1ccc2c(NCCCCN(Cc3ccccc3)Cc3ccccc3)ccnc2c1 [SJ000522718] | 17.3464 |
| Clc1ccc2c(NCCCCN(Cc3ccccc3)Cc3ccc4c(c3)OCO4)ccnc2c1 [SJ000522723] | 16.5062 |
| COc1ccc(CN(CCCCNc2ccnc3cc(Cl)ccc23)Cc2ccccc2)cc1 [SJ000522724] | 6.683 |
| Fc1ccc(CN(CCCCNc2ccnc3cc(Cl)ccc23)Cc2ccccc2)cc1 [SJ000522725] | 30.2004 |
| COc1ccccc1CN(CCCCNc1ccnc2cc(Cl)ccc12)Cc1ccccc1 [SJ000522726] | 19.4021 |
| CN(C)c1ccc(CN(CCCCNc2ccnc3cc(Cl)ccc23)Cc2ccccc2)cc1 [SJ000522727] | 21.522 |
| COc1ccc(CN(CCCCNc2ccnc3cc(Cl)ccc23)Cc2ccccc2)cc1OC [SJ000522728] | 0.05797 |
| Clc1ccc2c(NCCCCN(CCCc3ccccc3)Cc3ccccc3)ccnc2c1 [SJ000522729] | 27.8155 |

More lines, now with the values ahead:

| percent inhibition (TR-FRET) | Compound |
| --- | --- |
| -120.975 | CCCN(CCCNc1c2ccc(Cl)cc2nc2ccc(OC)cc12)CCC(C)c1ccccc1 (stereo not drawn) [SJ000522731] |
| -187.09 | CCCN(CCCNc1c2ccc(Cl)cc2nc2ccc(OC)cc12)Cc1c(F)cccc1OC [SJ000522733] |
| -154.43 | CCCN(CCCNc1c2ccc(Cl)cc2nc2ccc(OC)cc12)Cc1ccc([N+](=O)[O-])s1 [SJ000522735] |
| -192.351 | CCCN(CCCNc1c2ccc(Cl)cc2nc2ccc(OC)cc12)Cc1cn(C(C)=O)c2ccccc12 [SJ000522736] |
| -133.032 | COC(=O)c1ccc(CNCCCNc2c3ccc(Cl)cc3nc3ccc(OC)cc23)cc1 [SJ000522957] |
| -97.8295 | COc1ccc2nc3cc(Cl)ccc3c(NCCCNCc3ccc(Cl)cc3Cl)c2c1 [SJ000522958] |
| -177.507 | CCCN(CCCNc1c2ccc(Cl)cc2nc2ccc(OC)cc12)Cc1ccc(OC)c(F)c1 [SJ000522963] |
| -162.244 | CCCN(CCCNc1c2ccc(Cl)cc2nc2ccc(OC)cc12)Cc1cn(C)c2ccccc12 [SJ000522964] |
| -286.942 | CCCCN(CCC)CCCNc1c2ccc(Cl)cc2nc2ccc(OC)cc12 [SJ000522971] |
| -105.076 | CCCN(CCCNc1c2ccc(Cl)cc2nc2ccc(OC)cc12)Cc1ccc(CC)cc1 [SJ000522972] |
| -159.863 | CCCN(CCCNc1c2ccc(Cl)cc2nc2ccc(OC)cc12)Cc1nccn1C [SJ000522973] |

Same assay, conditions: single point TR-FRET screening of quinoline compounds against MAGE-A11:PCF11; 15 µM

| Compound | percent inhibition (TR-FRET) |
| --- | --- |
| FC(F)(F)c1ccc2c(NCCCNCC3CCOC3)ccnc2c1 (stereo not drawn) [SJ000521065] | 15.5598 |
| Cn1ccnc1CNCCCNc1ccnc2cc(C(F)(F)F)ccc12 [SJ000521068] | 10.1938 |
| Clc1ccc2c(NCCCN(Cc3ccccc3)Cc3ccc[nH]3)ccnc2c1 [SJ000522717] | 20.4621 |
| Clc1ccc2c(NCCCN(Cc3ccccc3)Cc3ccc4c(c3)OCO4)ccnc2c1 [SJ000522719] | 9.001 |
| COc1ccc(CN(CCCNc2ccnc3cc(Cl)ccc23)Cc2ccccc2)cc1 [SJ000522720] | 11.7837 |
| Fc1ccc(CN(CCCNc2ccnc3cc(Cl)ccc23)Cc2ccccc2)cc1 [SJ000522721] | 18.0772 |
| COc1ccccc1CN(CCCNc1ccnc2cc(Cl)ccc12)Cc1ccccc1 [SJ000522722] | 4.43 |
| CN(C)c1ccc(CN(CCCNc2ccnc3cc(Cl)ccc23)Cc2ccccc2)cc1 [SJ000522741] | 14.7648 |
| COc1ccc(CN(CCCNc2ccnc3cc(Cl)ccc23)Cc2ccccc2)cc1OC [SJ000522742] | -0.5383 |
| CCCN(CCCNc1ccnc2cc(Cl)ccc12)Cc1ccccn1 [SJ000522743] | 1.3128 |
| CCCN(CCCNc1ccnc2cc(Cl)ccc12)Cc1ccsc1 [SJ000522744] | 7.824 |
| CCCN(CCCNc1ccnc2cc(Cl)ccc12)Cc1ccccc1C(F)(F)F [SJ000522745] | -38.0341 |
| CCCN(CCCNc1ccnc2cc(Cl)ccc12)Cc1ccc2[nH]ccc2c1 [SJ000522746] | 96.845 |
| CCCN(CCCNc1ccnc2cc(Cl)ccc12)Cc1ccccc1N [SJ000522747] | 15.4273 |
| CCCN(CCCNc1ccnc2cc(Cl)ccc12)Cc1c(F)c(F)c(F)c(F)c1F [SJ000522748] | 19.8658 |
| CCCN(CCCNc1ccnc2cc(Cl)ccc12)Cc1c(C)cc(C)cc1C [SJ000522749] | 35.4339 |
| CCCN(CCCNc1ccnc2cc(Cl)ccc12)Cc1ccc([N+](=O)[O-])s1 [SJ000522750] | 9.134 |
| CCCN(CCCNc1ccnc2cc(Cl)ccc12)CC1CCCCC1 [SJ000522751] | 15.626 |
| CCCN(CCCNc1ccnc2cc(Cl)ccc12)CC(CC)CC [SJ000522752] | 14.1686 |
| CCCN(CCCNc1ccnc2cc(Cl)ccc12)Cc1ccc2c(c1)OCO2 [SJ000522753] | 18.7467 |
| CCCCCN(CCC)CCCNc1ccnc2cc(Cl)ccc12 [SJ000522754] | 16.2885 |
| CCCN(CCCNc1ccnc2cc(Cl)ccc12)Cc1c(C)n(C)n(-c2ccccc2)c1=O [SJ000522755] | 13.6386 |
| CCCN(CCCNc1ccnc2cc(Cl)ccc12)Cc1ccccc1F [SJ000522757] | 21.9858 |
| CCCN(CCCNc1ccnc2cc(Cl)ccc12)Cc1ccc(F)cc1 [SJ000522759] | 20.7933 |
| CCCN(CCCNc1ccnc2cc(Cl)ccc12)Cc1cc2ccccc2nc1Cl [SJ000522760] | 12.7954 |
| CCCN(CCCNc1ccnc2cc(Cl)ccc12)Cc1ccc(Cl)c([N+](=O)[O-])c1 [SJ000522761] | 16.951 |
| CCCN(CCCNc1ccnc2cc(Cl)ccc12)Cc1c2ccccc2cc2ccccc12 [SJ000522762] | 15.4935 |
| COc1ccc2nc3cc(Cl)ccc3c(NCCCNCc3ccc(-c4cccc(Cl)c4)o3)c2c1 [SJ000522959] | -47.4182 |
| COc1ccc2nc3cc(Cl)ccc3c(NCCCNCc3c(Cl)ccc(Cl)c3Cl)c2c1 [SJ000522960] | -81.4922 |

The next lines start with the values.

| percent inhibition (TR-FRET) | Compound |
| --- | --- |
| 0.7867 | CCCN(CCCNc1c2ccc(Cl)cc2nc2ccc(OC)cc12)CCCSC [SJ000522730] |
| 39.4714 | CCCN(CCCNc1c2ccc(Cl)cc2nc2ccc(OC)cc12)Cc1ccc2[nH]ccc2c1 [SJ000522732] |
| -2.258 | CCCN(CCCNc1c2ccc(Cl)cc2nc2ccc(OC)cc12)Cc1c(F)c(F)c(F)c(F)c1F [SJ000522734] |
| -83.7446 | CCCN(CCCNc1c2ccc(Cl)cc2nc2ccc(OC)cc12)Cc1cc2ccccc2nc1Cl [SJ000522737] |
| -71.0252 | CCCN(CCCNc1c2ccc(Cl)cc2nc2ccc(OC)cc12)Cc1ccc(Cl)c([N+](=O)[O-])c1 [SJ000522738] |
| -94.5429 | CCCN(CCCNc1c2ccc(Cl)cc2nc2ccc(OC)cc12)Cc1cccc(C#N)c1 [SJ000522739] |
| -74.0063 | CCCN(CCCNc1c2ccc(Cl)cc2nc2ccc(OC)cc12)Cc1ccc(-c2ccccc2)cc1 [SJ000522740] |
| 19.1371 | CCCN(CCCNc1ccnc2cc(Cl)ccc12)Cc1ccc(OC)cc1 [SJ000522756] |
| 27.418 | CCCN(CCCNc1ccnc2cc(Cl)ccc12)Cc1cccc(F)c1 [SJ000522758] |
| 12.9099 | CCCN(CCCNc1ccnc2cc(Cl)ccc12)Cc1cccc(C#N)c1 [SJ000522763] |
| -7.0891 | COc1ccc2nc3cc(Cl)ccc3c(NCCCNCc3cccc(C)c3)c2c1 [SJ000522956] |
| 22.6913 | CCCN(CCCNc1c2ccc(Cl)cc2nc2ccc(OC)cc12)Cc1ccccc1OC(F)(F)F [SJ000522961] |
| -21.5824 | CCCN(CCCNc1c2ccc(Cl)cc2nc2ccc(OC)cc12)Cc1cc2ccccc2s1 [SJ000522962] |
| -81.2358 | CCCN(CCCNc1c2ccc(Cl)cc2nc2ccc(OC)cc12)Cc1cc(OC)ccc1F [SJ000522965] |
| -82.146 | CCCN(CCCNc1c2ccc(Cl)cc2nc2ccc(OC)cc12)Cc1nc(C)cs1 [SJ000522966] |
| 14.4758 | CCCN(CCCNc1c2ccc(Cl)cc2nc2ccc(OC)cc12)Cc1cccc(OC(F)(F)F)c1 [SJ000522967] |
| 23.0877 | CCCN(CCCNc1c2ccc(Cl)cc2nc2ccc(OC)cc12)Cc1c(F)cccc1C(F)(F)F [SJ000522968] |
| -68.773 | CCCN(CCCNc1c2ccc(Cl)cc2nc2ccc(OC)cc12)Cc1nc2ccccc2s1 [SJ000522969] |
| -51.6891 | CCCN(CCCNc1c2ccc(Cl)cc2nc2ccc(OC)cc12)Cc1csc2ccccc12 [SJ000522970] |
| 16.3588 | CCCN(CCCNc1c2ccc(Cl)cc2nc2ccc(OC)cc12)Cc1ccc(Cl)c(C(F)(F)F)c1 [SJ000522974] |
| -89.0775 | CCCN(CCCNc1c2ccc(Cl)cc2nc2ccc(OC)cc12)Cc1cncc(Br)c1 [SJ000522975] |

From paper PMC7529893, “Structural basis for substrate recognition and chemical inhibition of oncogenic MAGE ubiquitin ligases” (Nature Communications, 2020)
